These results are taken from ChEMBL document CHEMBL5042522, “One- and Two-Photon Uncaging of Carbon Monoxide (CO) with Real-Time Monitoring: On-Demand Carbazole-Based Dual CO-Releasing Platform to Test over Single and Combinatorial Approaches for the Efficient Regression of Orthotopic Murine Melanoma In Vivo” (J Med Chem, 2022).

A short description of series [1]: Stability of compound in PBS buffer at pH 7.4 at 100 uM incubated for 72 hrs under dark condition by RP-HPLC analysis. The settings on record: read-out: Stability. Type of series: physicochemical.
The nature of series [2]: Photolysis of compound in PBS buffer at pH 7.4 assessed as compound decomposition by measuring final photoproduct formation at 0.1 mM irradiated with >= 365 nm for 20 mins by RP-HPLC analysis. Particulars: pH 7.4, 20 min, 100 µM; call rule not given here. It is filed as physicochemical.
Series [3] can be described thus: Photorelease activity in PBS buffer at pH 7.4 assessed as release of CO using 3',6'-Bis(allyloxy)-3H-spiro(isobenzofuran-1,9'-xanthen)-3-one fluorescent probe at 500 uM irradiated with >= 365 nm Hg lamp for 30 mins in presence of PdCl2 by absorption spectroscopy. It is filed as physicochemical. The settings on record: pH 7.4, 0.5 h.
The nature of series [4]: Photorelease ability in PBS buffer at pH 7.4 assessed as compound decomposition by measuring 1-(9-ethyl-9H-carbazol-3-y1)-2,2-dihydroxyethan-l-one photoproduct formation at 100 uM measured upto 5.5 mins of irradiation with >= 365 nm Hg lamp by RP-HPLC analysis followed by 1H-NMR analysis. The settings on record: pH 7.4, 5.5 min. It is filed as physicochemical.
A short description of series [5]: Photorelease ability in CDCl3 assessed as compound decomposition by measuring (2,2'-(9-ethy1-9H-carbazole-3,6-chyl)bis(2-oxoacetaldehyde) photoproduct formation at 100 uM measured after 20 mins of irradiation with >= 365 nm Hg lamp by 1H-NMR spectroscopy. Type of series: physicochemical.
Series [6] is described as follows: Drug uptake in mouse B16-F10 cells assessed as drug internalization by measuring blue fluorescence at 20 uM incubated for 4 hrs followed by propidium iodide staining based confocal laser scanning microscopy. Type of series: ADME, cell-based. The settings on record: b16-f10, 4 h.
For series [7], the system named is B16-F10. Put plainly: Photorelease activity in mouse B16-F10 cells assessed as uncaging of active molecules of drug by measuring green fluorescence at 20 uM incubated for 4 hrs irradiated with >= 365 nm Hg lamp for 5 mins and further incubated for 4 hrs by propidium iodide staining based confocal laser scanning microscopy. The settings on record: time 8.0 hrs. It is filed as functional, cell-based.

Series [8] is described as follows: Stability of compound in PBS buffer at pH 7.4 at 100 uM incubated for 72 hrs under dark condition in presence of cysteine by Reverse-phase HPLC analysis. Type of series: physicochemical. The settings on record: read-out: Stability.
The test system of series [9] is B16-F10. Put plainly: Cytotoxicity against mouse B16-F10 cells assessed as cell viability at 1.25 to 10 uM irradiated with >= 365 nm Hg lamp for 5 mins after 6 hrs post-treatment and further incubated for 72 hrs by MTT assay. Type of series: functional. Particulars: dose 1.25-10 µM, time 78 hrs. On the technique in general: Formazan colour is commonly taken as a measure of viable cells.

Series [10] concerns B16-F10. In words: Cytotoxicity against mouse B16-F10 cells assessed as cell viability at 10 uM irradiated with >= 365 nm Hg lamp for 5 mins after 6 hrs post-treatment and further incubated for 72 hrs by MTT assay. It is filed as functional. Particulars: B16-F10, light or radiation study, time 78 hrs, read-out: Activity.
A short description of series [11]: Photorelease ability in PBS buffer at pH 7.4 assessed as compound decomposition at 100 uM irradiated with >= 365 nm Hg lamp upto 30 mins by UV absorption spectroscopy. Particulars: read-out: Drug degradation. Type of series: physicochemical.
The nature of series [12]: Photorelease ability in PBS buffer at pH 7.4 assessed as fast uncaging of CO at 100 uM irradiated with >= 365 nm Hg lamp for 60 mins by RP-HPLC analysis. It is filed as physicochemical. The settings on record: pH 7.4, 1 h.
Series [13] is described as follows: Photolysis of compound in PBS buffer at pH 7.4 assessed as compound decomposition by measuring final photoproduct formation at 0.1 mM irradiated with >= 365 nm for 60 mins by RP-HPLC analysis. It is filed as physicochemical. The settings on record: pH 7.4, 1 h, 100 µM.

With `CCn1c2ccccc2c2cc(-c3coc(=O)o3)ccc21`, the values for the remaining at 72 h, 100 µM in [1] and in [8] were 96% and 87%, respectively. Further, the Drug degradation in series [2] was determined as 93%; in series [4], 100%; in series [5], 100%. The Drug metabolism in [3] came to 5.9 ppm; with B16-F10 [7], 100%. Moreover, the Drug uptake result in [6] is “Active”. Also, the Activity in the series with B16-F10 [9] is reported as 70%.

As to `O=C(O)CCCc1ccc(N(CCCl)CCCl)cc1` [CHLORAMBUCIL], the viability at 10 µM in the series with B16-F10 [10] came out at 80%.

In the case of `CCn1c2ccc(C(=O)C(O)O)cc2c2cc(-c3coc(=O)o3)ccc21`, in series [11], the degraded at 0.5 h, 100 µM worked out at 100%.

As to `CCn1c2ccc(C(=O)COC(=O)CCCc3ccc(N(CCCl)CCCl)cc3)cc2c2cc(-c3coc(=O)o3)ccc21`, the results for the remaining at 72 h, 100 µM in series [1] and in series [8] were 96% and 93%, respectively. In addition, the Drug metabolism in [3] was 5.7 ppm; with B16-F10 [7], 100%; in series [12], “Active”. For the same compound, the Drug uptake result in series [6] is recorded as “Active”. Also, the Drug degradation in series [13] is given as 88%. Moreover, the Activity with B16-F10 [9] was 35%.
